Tested on: Phakopsora pachyrhizi
Assay: Fungicidal activity: Asian soybean rust (PHAKPA), soybean seedlings
Assay type: in vivo
Conditions: High volume, 25 ppm, 3 Day Curative
Method: Example C: Evaluation of Fungicidal Activity: Asian Soybean Rust (Phakopsora pachyrhizi; Bayer Code […]) Technical grades of materials were dissolved in acetone, which were then mixed with nine volumes of water containing 0.011% Tween 20. The fungicide solutions were applied onto soybean seedlings using an automated booth sprayer to run-off. All sprayed plants were allowed to air dry prior to further handling. Soybean plants (variety Williams 82) were grown in soil-less Metro mix, with one plant per pot. Two week old seedlings were used for testing. Plants were inoculated either 3 days prior to or 1 day after fungicide treatments. Plants were incubated for 24 h in a dark dew room at 22° C. and 100% relative humidity then transferred to a growth room at 23° C. for disease to develop. Disease severity was assessed on the sprayed leaves.

| Compound | PHAKPA disease control, 3DC |
| --- | --- |
| COc1ccnc(C(=O)N[C@@H](C)C(=O)O[C@@H](C)[C@@H](c2ccc(F)cc2C)C(C)C)c1OC(C)=O [compound 178] | B (≤80) |
| COc1ccnc(C(=O)N[C@@H](C)C(=O)O[C@H](C)[C@H](c2ccc(F)cc2C)C(C)C)c1OC(C)=O [compound 192] | B (≤80) |
| COc1ccnc(C(=O)N[C@@H](C)C(=O)O[C@@H](C)[C@H](c2ccc(C)cc2F)C(C)C)c1OC(C)=O [compound 366] | B (≤80) |
| COc1ccnc(C(=O)N[C@@H](C)C(=O)O[C@@H](C)[C@@H](c2ccc(C)cc2F)C(C)C)c1OC(C)=O [compound 369] | B (≤80) |

Source: patent publication US10246417B2, “Picolinamides as fungicides” (Dow AgroSciences LLC, priority 2017, dated 2019)
